# Data as given in PMC8691750, “Euphorbia Factor L2 ameliorates the Progression of K/BxN Serum-Induced Arthritis by Blocking TLR7 Mediated IRAK4/IKKβ/IRF5 and NF-kB Signaling Pathways” (Frontiers in Pharmacology, 2021).
# How the values were obtained:
# [1] = tested on: LPS-induced lung injury; set-up: method as in Zhang et al., 2018; conditions: mice; ref Zhang et al., 2018; cited from earlier work
# [2] = tested on: TLR7 (R837) / TLR3 (poly:IC) induced cytokine production in RAW264.7 cells; assay: ELISA of IL-1β and IL-6 in supernatant of R837 and/or poly:IC stimulated RAW264.7 cells; assay type: cell-based, mouse
# Method: RAW264.7 cells (5×10^5/ml), BMDMs (5×10^5/ml) and PBMCs (2×10^6/ml) were plated in 96-well plates and incubated overnight. […] For the anti-inflammatory molecular mechanism study, RAW264.7 cells (5×10^5/ml) were plated in 96-well plates and stimulated with R837 (20 μg/ml) with or without the addition of NF-κB inhibitor (JSH-23, […]) for 24 h. After 24 h, the culture supernatant was collected for cytokines measurements.
# IL-4, IL-17A and TNF-α in sera from different group mice were measured using CBA Multiplex kit (BD, United States). The concentrations of IL-1β and IL-6 in serum or supernatant were detected by ELISA Kit (MULTI SCIENCES, China) according to the manufacturers’ instructions.
# [3] = tested on: synovial hyperplasia and articular inflammatory cells infiltration in knee joints; assay: Histological assessment (H&E) of knee joints of STA mice; assay type: in vivo, C57BL/6 mice
# Method: K/BxN serum was collected from K/BxN mice at 8 weeks of age, pooled, aliquoted and stored at -20 °C. K/BxN serum-transfer arthritis (STA) model was induced by intraperitoneal (i.p.) application of 150 μL of serum at day 0. Clinical score for arthritis severity was assessed using a 0–4 point scale for each paw at various time points (0–16 total score) as described previously ([Luo et al., 2011]). 8-week old male C57BL/6 mice were purchased from Dashuo Animal Center (China, Chengdu), maintained at 25°C, and exposed to 12-h light and dark cycles. Mice were fed with standard laboratory chow and water with 1 week of acclimatization. Naive mice were used as the control group. Except the control mice, all mice were i. p. injected with 150 μL of serum, then randomly divided into the following groups and treated with different compounds daily for the consecutive 8 days: 1) STA group; 2) Solvent control group, mice were gavaged with the solvent; 3) Dexamethasone (DEX) group, mice were gavaged with 30 mg/kg DEX; 4) EFL2 group 1, mice were gavaged with 40 mg/kg EFL2; 5) EFL2 group 2, mice were intraperitoneally injected with 15 mg/kg EFL2; 6) EFL2 group 3, […] were intraperitoneally injected with 40 mg/kg EFL2. […] All animal experiments were conducted in accordance with ethical regulation for animal care and use in China.
# The left knee joints were removed on day 13 post STA and fixed in 4% formaldehyde overnight at 4°C. The tissues were decalcified in EDTA and sectioned after embedding in paraffin. 5 μm sections were deparaffinized with xylene, re-hydrated with 100, 95 and 80% ethanol and then stained with hematoxylin and eosin (H&E). Histopathological changes in the knee joints were measured using a semiquantitative scoring system (0–4 scale) to assess synovial hyperplasia and articular inflammatory cells infiltration as previously described ([Yamanishi et al., 2002]).
# [4] = tested on: TLR7-mediated IRAK4/IKKβ/IRF5 signaling pathway; assay: Western blot, IRAK4/IKKβ/IRF5 in R837-stimulated RAW264.7 cells; assay type: cell-based, mouse; conditions: R837-stimulated RAW264.7
# Method: RAW264.7 cells (2×10^6 cells/well) were plated into 6-well plates and then incubated at 37°C in 5% CO2 for 24 h. After incubated with various concentrations of EFL2 (1, 5 and 10 µM) for 1 h, cells were then stimulated by R837 (20 μg/ml) for 30 min. Cell lysates were prepared by direct lysis in 20 µL IP buffer (Beyotime Biotechnology, Shanghai, China). After obtaining the whole cell extracts, the cytosolic and nuclear were seperated using Nuclear and Cytoplasmic Protein Extraction Kit (Beyotime Biotechnology, Shanghai, China). BCA Protein Assay Kit (Beyotime Biotechnology, Nantong, China) was applied to determine the protein concentrations. The bands corresponding to p- IKKα/β, IKKα/β, p-IκBα, IκBα, p-p65, p65, p-IRAK4, IRAK4, p-IKKβ, IKKβ, p-IRF5, IRF5, β-actin and Lamin B were visualized using a Western Blot Detection Chemiluminescence Kit (Merck). Protein extracted from the total lysates/cytoplasm and nucleus was quantified in relation to β-actin and Lamin B bands, respectively.
# The antibodies used in the experiments were as follows: rabbit anti-mouse IKKα/β polyclonal antibody (1:1,000, Abways, China), rabbit anti-mouse IκBα polyclonal antibody (1:1,000, Abgent, China), rabbit anti-mouse p65 polyclonal antibody (1:1,000, Abgent, China), rabbit anti-mouse phosphorylated IKKα (Ser176)/β (Ser177) (1:1,000, Abways, China), rabbit anti-mouse phosphorylated IκBα (1:1,000, Abcam, United States), rabbit anti-mouse phosphorylated p65 (1:1,000, Abcam, United States), rabbit anti-mouse IRAK4 polyclonal antibody (1:1,000, Proteintech, United States), rabbit anti-mouse phosphorylated IRAK4 (Thr345/Ser346) (1:1,000, Affinity, United States), rabbit anti-mouse IKKβ polyclonal antibody (1:1,000, Abbkine, United States), rabbit anti-mouse phosphorylated IKKβ (Ser177) (1:1,000, Abways, China), rabbit anti-mouse IRF5 polyclonal antibody (1:1,000, Immunoway, United States), rabbit anti-mouse phosphorylated IRF5 (Ser437) (1:1,000, Affinity, United States), anti-mouse actin monoclonal antibody (1:20,000, Transgen, China) and rabbit anti-mouse LaminB monoclonal antibody (1:5,000, Abways, China).
structure (smiles),measurement,setting,value
"C=C1C(OC(=O)c2ccccc2)CC2C(C=C(C)C(=O)C3(OC(C)=O)CC(C)C(OC(=O)c4ccccc4)C3C1OC(C)=O)C2(C)C (centres unmarked) [EFL2, Euphorbia factor L2]",effect on LPS-induced lung injury,[1],robust improving effect
same,inhibitory ability on IL-1β and IL-6 production compared to JSH-23,"[2]; R837-stimulated RAW264.7, EFL2 10 μM",stronger inhibitory ability
same,IL-6 production,"[2]; R837-stimulated RAW264.7, EFL2 0.1-10 μM",dose-dependently reduced
same,IL-1β secretion,"[2]; R837-stimulated RAW264.7, EFL2 at 0.1 μM",effectively inhibit
same,levels of IL-1β and IL-6 in the supernatant,"[2]; RAW264.7 co-stimulated by poly (I:C) and R837, various concentrations of EFL2",to different expent decreased
same,inflammatory cells infiltration and synovium hyperplasia in joints,[3]; EFL2 15 mg/kg i.p.,only partially reduced
same,inflammatory status and inflamed synovium in joints,[3]; EFL2 40 mg/kg i.p.,significantly inhibited
same,IRF5 translocation (cytoplasm to nucleus),"[4]; EFL2 at 5 and 10 μM, also immunofluorescence",effectively blocked
same,phosphorylation of IKKβ,"[4]; EFL2 pretreatment 1, 5, 10 μM",significantly suppressed
same,phosphorylation of IRAK4,"[4]; EFL2 pretreatment 1, 5, 10 μM",significantly suppressed
same,phosphorylation of IRF5,"[4]; EFL2 pretreatment 1, 5, 10 μM",significantly suppressed
